From patent US20130202649A1, “ACTIVATION OF INNATE IMMUNITY FOR NUCLEAR REPROGRAMMING OF SOMATIC CELLS” (The Board of Trustees of the Leland Stanford Junior …, priority 2012, published 2013)

Key:
[1] = tested on: innate immune response genes (TLR3, NF-κB, IFN-β, Stat1, Stat2); test: Expression of innate immunity related genes; format: cell-based, human
From the text: To gain more insight into the mechanisms by which a retroviral particle could accelerate nuclear reprogramming, we substituted a non-integrating mutant of pMX-GFP by introducing a frameshift mutation near the poi coding region of the retrovirus. This mutant can enter the cell, direct synthesis of intact virus particles that retain reverse transcriptase activity, but cannot integrate newly synthesized viral DNA into the host genome. […] Accordingly, integration of foreign DNA into the host genome is not required for the difference in gene expression between the CPPs and their corresponding viral vectors. Viral infection activates innate immunity, by virtue of interaction with Toll-like receptors (TLRs). The TLRs recognize pathogen-associated molecular patterns (PAMPs) associated with viral protein, lipopolysaccharides, DNA or RNA. We hypothesized that activation of innate immunity through TLRs may be involved in the difference in gene expression. Indeed, we observed that our retroviral vectors (but not the CPPs) activated inflammatory (innate immune response) genes, including the toll-like receptor 3 (TLR3), NF-κB, IFN-β, Stat1 and Stat2 (FIG. 11).
Treatments At 60-70% confluency, BJ fibroblast cells were serum-starved using 1% serum to induce G1 cell cycle arrest. […]

[2] = tested on: heterochromatin protein 1 (HP1); test: HP1 distribution (confocal microscopy) and expression (Western); format: cell-based, human
Method: In addition, the changes in methylation status of the Oct4 and Sox2 promoters that were accelerated by TLR3 activation were also associated with an accelerated redistribution of heterochromatin protein 1 (HP1; FIGS. 19A and 19B). HP1 that is bound to methylated H3K9 recruits the methylase Suv39h, leading to further methylation of H3K9, so as to consolidate a repressed state. The redistribution of HP1 induced by poly I:C is consistent with genome-wide epigenetic alterations induced by TLR3 activation. Histone acetylation favors an open chromatin state, maintained by proteins containing histone acetyltransferase (HAT) domains, such as p300 and CBP. NF-κB is a transcriptional effector of TLR3 activation, and interacts with CBP/p300 to positively regulate gene expression. […] This effect was mediated by TLR3, as shRNA knockdown of TLR3 or its adaptor protein TRIF1 reduced the effect of poly I:C on NF-κB activation (FIG. 20).
Heterochromatin protein-1 (HP1) is associated with the closed conformation of chromatin. […] The fact that the current work implicated TRIF signaling likely aligns with the fact that the retrovirus RNA provides adequate TLR3 signaling to trigger NF-κB, IRF3 and IFN. While TLR3 mimicked signaling from the retrovirus vector, other TLR agonists as well as agonists for NOD-like receptors, RIG-1-like receptors, cytosolic DNA sensors and C-type lectin receptors, drive a similar inflammatory response converging on NF-κB, IRF-3 and IFNβ.
Western Blotting Proteins were extracted from BJ fibroblasts by solubilizing the cells in RIPA buffer containing 1× protease inhibitor cocktail. 25 μg of total protein was loaded and resolved on SDSpolyacrylamide gels, transferred to PVDF membranes and probed with the following primary antibodies: anti-HP1α and anti-HDAC (Cell Signaling), and β-actin (Sigma, A5441). Immunoblots were developed with enhanced chemiluminescence reagents (Amersham).

NF-κB = NF-κB luciferase assay; format: cell-based, human; conditions: BJ fibroblasts; poly IC 300 ng/ml
Method: NF-κB Luciferase assay BJ fibroblasts (3×105) were seeded in a 6-well plate and subjected to either pMX-GFP infection, CPP-SOX2 treatment with or without poly IC (300 ng/ml). Cells were transfected with pNF-κB-Luc and pFC-MEKK as a positive control plasmid using Lipofectamine 2000. Twentyfour hours post-transfection, cells were collected for measuring the luciferase activity by the Bright-Glo™ Luciferase Assay System using a luminometer.

human BJ fibroblasts = test: Temporal target and pluripotency gene expression (qPCR) after retroviral vector, CPP or TLR3 agonist treatment; format: cell-based
From the text: In an effort to understand and overcome this failure, we examined the temporal sequence of target gene expression in response to a retroviral construct (pMX-Sox2) versus the corresponding CPP(CPP-SOX2). We focused on validated downstream targets such as Jarid2, Zic2, and bMyb for Sox2-activated genes, as well as, downstream genes known to function in nuclear reprogramming, i.e. Nanog, Sox2 and Oct4. Human fibroblasts were synchronized by serum starvation and then subjected to either a single infection with pMX-Sox2 or daily treatments of CPP-SOX2, and gene expression was assayed over 6 days.
Viral preparation and infection HEK293FT cells were plated at 6×10^6 cells per T225 flask and incubated overnight. Cells were transfected with 10 μg of VSV-G (envelope protein), 15 μg of pUMVC (packaging plasmid) and 10 μg of gene of interest (Sox2 or Oct4) with Lipofectamine. 48 hours after transfection, the supernatant of transfectant was collected and filtered through a 0.45 μm filter. Following spinning at 17,100 rpm for 2 hr 20 min, the viral pellet was resuspended to make 100× stock solutions. Human fibroblasts were seeded at 5×10^4 cells per well of a 6-well dish a day before transduction. The medium was replaced with virus-containing supernatant supplemented with 8 μg/ml polybrene, and incubated for 24 hr.
Treatments At 60-70% confluency, BJ fibroblast cells were serum-starved using 1% serum to induce G1 cell cycle arrest. The synchronized BJ fibroblasts were then subjected to either a single infection with retroviral constructs or daily treatments with 200 nM CPPs (CPP-SOX2 or CPP-OCT4). Poly I:C (300 ng/ml) was added to the cells simultaneously with the CPPs. For experiments involving peptide inhibitors, cells were pretreated for 6 hrs at 40 uM with either MyD88 inhibitory peptide (Pepinh-MyD) or TRIF inhibitory peptide (Pepinh-TRIF) followed by CPP treatments.
Gene Expression and Microarray Analyses RNA was isolated with the RNeasy kit. First-strand cDNA was primed with oligo(dT) primers and qPCR was performed with primer sets from Applied Biosystems. […]

NF-κB activation (luciferase reporter) (NF-κB): induced NF-κB activation
Substance: Polyinosinicpolycytidylic acid [Poly I:C]
expression of NF-κB and TLR3 ([1]; BJ fibroblasts): sustained increase
expression of inflammatory (innate immune response) genes ([1]; human fibroblasts): induces the expression of genes involved in innate immunity
distribution of HP1 ([2]; co-administered with CPP-SOX2): marked changes in its distribution
expression of HP-1α (immunoblot) ([2]; day 2 to day 6): unaffected
distribution of HP1 ([2]; in the absence of the CPP): no observable redistribution
target and pluripotency gene expression (human BJ fibroblasts; agent alone, CPP 200 nM daily or single infection on Day 0, assayed over 6 days): unaffected
temporal expression of the downstream genes induced by CPP-OCT4 (human BJ fibroblasts; combined with CPP-OCT4 200 nM daily): accelerated
expression of the downstream genes induced by CPP-SOX2 (human BJ fibroblasts; combined with CPP-SOX2 200 nM daily, poly I:C 300 ng/ml): accelerated
